According to ChEMBL document CHEMBL4831562, “Discovery of Imidazole-Based Inhibitors of Plasmodium falciparum cGMP-Dependent Protein Kinase” (ACS Med Chem Lett, 2021):
pEC50, pIC50: −log10 of the molar value. In brackets after ≈: the same amount, converted by molar mass. Blank lines part the entries; values can stand above or below the molecule they belong to.

Legend:
Plasmodium berghei [1] = assay: (§1) Antiplasmodial activity against luciferase expressing Plasmodium berghei sporozoites infected in HepG2 cells assessed as decrease in parasite infection at 2 uM incubated for 16 hrs followed by replacement with compound free medium and measured after 48 hrs post infection by IVIS spectrum in vivo imaging analysis relative to control; assay type: functional; conditions: read-out: INH
[2] = Inhibition of Plasmodium falciparum PKG
Plasmodium falciparum [3] = assay: Inhibition of Plasmodium falciparum PKG using FAM-labeled PKAtide or IP3R-derived peptide as a substrate at 1 uM preincubated for 15 mins followed by substrate addition and incubated for 60 mins by IMAP assay relative to control; conditions: time 75.0 min
Plasmodium cynomolgi [4] = assay: Antiplasmodial activity against liver stage Plasmodium cynomolgi B infected in non-human primate hepatocytes assessed as inhibition of hypnozoite development incubated for 4 days from sporozoite addition by prophylactic assay; assay type: functional, organism-based; conditions: Hepatocyte, 96 h
Plasmodium cynomolgi [5] = assay: Antiplasmodial activity against liver stage Plasmodium cynomolgi B infected in non-human primate hepatocytes assessed as inhibition of liver schizonts development incubated for 4 days from sporozoite addition by prophylactic assay; assay type: functional, organism-based; conditions: Hepatocyte, 96 h
Plasmodium cynomolgi [6] = assay: Antiplasmodial activity against liver stage Plasmodium cynomolgi B infected in non-human primate hepatocytes assessed as reduction in liver schizonts development incubated for 4 days starting on day 4 post-sporozoite inoculation by […] cure mode analysis; assay type: functional, organism-based; conditions: Hepatocyte, 96 h
Plasmodium cynomolgi [7] = assay: Antiplasmodial activity against liver stage Plasmodium cynomolgi B infected in non-human primate hepatocytes assessed as reduction in liver hypnozoites development incubated for 4 days starting on day 4 post-sporozoite inoculation by […] cure mode analysis; assay type: functional, organism-based; conditions: Hepatocyte, 96 h
[8] = Toxicity against non-human primate hepatocytes infected with liver stage Plasmodium cynomolgi B incubated for 4 days starting on day 4 post-sporozoite inoculation; assay type: ADME, tissue-based, Hepatocyte; conditions: primates, 96 h, time 4 day
[9] = Toxicity against non-human primate hepatocytes infected with liver stage Plasmodium cynomolgi B incubated for 4 days from sporozoite addition; assay type: ADME, tissue-based, Hepatocyte; conditions: primates, 96 h, time 4 day
Plasmodium falciparum [10] = assay: Antiplasmodial activity against asexual blood stage Plasmodium falciparum 3D7; assay type: functional, organism-based
Plasmodium berghei [11] = assay: as §1, with “berghei hepatic stage” for “berghei”, “infection” for “infection at 2 uM”, “medium” for “medium and”, “analysis” for “analysis relative to control”; assay type: functional, organism-based
[12] = Metabolic stability in mouse liver microsomes assessed as half life incubated for 60 mins in the presence of NADPH by LC-MS/MS analysis; assay type: ADME, Microsome
Cytochrome P450 2D6 = Cytochrome P450 2D6 (Homo sapiens, UniProt P10635); assay: Inhibition of human CYP2D6 using 3-[2-(N,N-diethylamino)ethyl]-7-methoxy-4-methyl coumarin as a substrate incubated for 45 mins by fluorescence based analysis; assay type: ADME
Cytochrome P450 2D6, sequence (P10635 whole entry): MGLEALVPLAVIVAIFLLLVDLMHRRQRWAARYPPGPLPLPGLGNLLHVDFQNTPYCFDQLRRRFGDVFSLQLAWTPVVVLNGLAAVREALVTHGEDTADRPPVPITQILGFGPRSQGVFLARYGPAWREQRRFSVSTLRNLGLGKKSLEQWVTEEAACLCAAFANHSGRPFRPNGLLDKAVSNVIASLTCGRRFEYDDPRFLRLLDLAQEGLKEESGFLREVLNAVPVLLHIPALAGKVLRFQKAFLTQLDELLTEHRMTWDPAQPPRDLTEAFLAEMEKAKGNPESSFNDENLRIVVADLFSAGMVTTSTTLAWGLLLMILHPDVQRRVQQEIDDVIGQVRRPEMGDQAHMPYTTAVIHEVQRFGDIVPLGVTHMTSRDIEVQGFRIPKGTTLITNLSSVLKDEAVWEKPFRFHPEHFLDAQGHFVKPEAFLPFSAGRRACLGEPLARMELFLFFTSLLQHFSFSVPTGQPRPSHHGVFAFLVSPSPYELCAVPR

Cytochrome P450 2C9 = Cytochrome P450 2C9 (Homo sapiens, UniProt P11712); assay: Inhibition of human CYP2C9 using 7-methoxy-4(trifluoromethyl coumarin) as a substrate incubated for 15 mins by fluorescence based analysis; assay type: ADME
Cytochrome P450 2C9, sequence (P11712 whole entry): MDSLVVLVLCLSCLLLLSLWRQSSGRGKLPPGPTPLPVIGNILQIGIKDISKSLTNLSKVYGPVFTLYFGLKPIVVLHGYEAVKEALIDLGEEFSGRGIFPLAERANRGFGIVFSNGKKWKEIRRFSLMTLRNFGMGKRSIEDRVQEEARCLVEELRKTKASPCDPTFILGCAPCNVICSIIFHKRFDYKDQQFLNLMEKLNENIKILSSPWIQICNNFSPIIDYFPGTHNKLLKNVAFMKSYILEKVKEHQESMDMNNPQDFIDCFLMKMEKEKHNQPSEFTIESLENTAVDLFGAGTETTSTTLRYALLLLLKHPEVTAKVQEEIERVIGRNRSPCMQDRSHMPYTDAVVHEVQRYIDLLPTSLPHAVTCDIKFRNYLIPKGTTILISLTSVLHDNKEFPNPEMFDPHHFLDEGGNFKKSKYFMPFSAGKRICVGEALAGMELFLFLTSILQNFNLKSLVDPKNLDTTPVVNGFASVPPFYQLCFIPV

[13] = Kinetic aqueous solubility of the compound at pH 7.4 measured after 1 hr by UV/LC-MS/MS analysis; assay type: physicochemical; conditions: buffer, read-out: Kinetic_solubility
Cytochrome P450 3A4 = Cytochrome P450 3A4 (Homo sapiens, UniProt P08684); assay: Inhibition of human CYP3A4 using testosterone as a substrate by LC/MS/MS analysis; assay type: ADME
Cytochrome P450 3A4, sequence (P08684 whole entry): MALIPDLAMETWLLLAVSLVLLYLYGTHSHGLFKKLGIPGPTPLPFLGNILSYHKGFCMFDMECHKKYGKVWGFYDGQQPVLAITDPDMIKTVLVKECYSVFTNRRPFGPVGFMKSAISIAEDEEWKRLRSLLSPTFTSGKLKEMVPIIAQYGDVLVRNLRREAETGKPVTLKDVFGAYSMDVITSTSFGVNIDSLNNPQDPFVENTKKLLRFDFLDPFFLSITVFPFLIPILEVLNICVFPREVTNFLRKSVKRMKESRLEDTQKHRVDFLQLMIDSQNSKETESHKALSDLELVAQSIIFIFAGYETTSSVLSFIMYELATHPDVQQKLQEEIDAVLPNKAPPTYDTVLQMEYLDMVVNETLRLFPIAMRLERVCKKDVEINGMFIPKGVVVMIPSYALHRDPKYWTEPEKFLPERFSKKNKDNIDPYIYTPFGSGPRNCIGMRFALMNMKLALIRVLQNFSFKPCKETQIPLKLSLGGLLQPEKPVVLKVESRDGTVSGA

[14] = Inhibition of Plasmodium falciparum PKG using FAM-labeled PKAtide or IP3R-derived peptide as a substrate preincubated for 15 mins followed by substrate addition and incubated for 60 mins by IMAP assay
[15] = Metabolic stability in human liver microsomes assessed as half life incubated for 60 mins in the presence of NADPH by LC-MS/MS analysis; assay type: ADME, Microsome
Plasmodium berghei [16] = assay: as §1, with “at 10” for “at 2”, “medium” for “medium and”; assay type: functional; conditions: read-out: INH
[17] = tested on: cGMP-dependent protein kinase (Plasmodium falciparum), W7JX98 [T618Q]; assay: Inhibition of Plasmodium falciparum PKG T618Q mutant using FAM-labeled PKAtide or IP3R-derived peptide as a substrate at 10 uM preincubated for 15 mins followed by substrate addition and incubated for 60 mins by IMAP assay relative to control; conditions: time 75.0 min
cGMP-dependent protein kinase (Plasmodium falciparum), W7JX98 [T618Q], sequence (W7JX98 whole entry T618Q): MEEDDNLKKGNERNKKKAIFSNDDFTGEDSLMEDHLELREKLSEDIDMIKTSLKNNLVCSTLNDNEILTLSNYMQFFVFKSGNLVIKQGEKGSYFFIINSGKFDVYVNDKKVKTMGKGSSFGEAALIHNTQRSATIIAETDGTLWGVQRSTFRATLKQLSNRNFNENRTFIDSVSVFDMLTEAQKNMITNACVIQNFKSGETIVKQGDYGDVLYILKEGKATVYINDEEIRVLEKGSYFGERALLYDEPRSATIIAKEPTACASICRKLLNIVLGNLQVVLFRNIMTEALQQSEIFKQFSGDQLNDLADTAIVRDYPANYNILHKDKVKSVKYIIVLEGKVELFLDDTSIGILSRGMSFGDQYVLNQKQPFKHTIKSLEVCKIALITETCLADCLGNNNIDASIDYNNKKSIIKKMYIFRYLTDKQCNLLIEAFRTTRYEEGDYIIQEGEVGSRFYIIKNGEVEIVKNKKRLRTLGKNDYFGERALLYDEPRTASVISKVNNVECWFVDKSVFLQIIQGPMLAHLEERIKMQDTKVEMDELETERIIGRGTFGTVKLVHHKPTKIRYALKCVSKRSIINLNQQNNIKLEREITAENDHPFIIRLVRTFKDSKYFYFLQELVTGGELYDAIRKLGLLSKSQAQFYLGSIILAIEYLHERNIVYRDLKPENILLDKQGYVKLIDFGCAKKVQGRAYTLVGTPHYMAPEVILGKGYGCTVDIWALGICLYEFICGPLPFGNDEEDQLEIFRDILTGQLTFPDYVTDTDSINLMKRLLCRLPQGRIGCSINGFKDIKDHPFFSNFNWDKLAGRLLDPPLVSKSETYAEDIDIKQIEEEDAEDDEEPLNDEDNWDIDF

Homo sapiens = species on record: Homo sapiens; assay: Inhibition of human PKG using FAM-labeled PKAtide or IP3R-derived peptide as a substrate at 10 uM preincubated for 15 mins followed by substrate addition and incubated for 60 mins by IMAP assay relative to control; conditions: time 75.0 min

Structure (SMILES): CCN(CC)Cc1onc(-c2cccc(Cl)c2)c1-c1ccnc(N[C@@H]2CCN(C(=O)c3ccsn3)C2)n1
percent decrease in parasite infection in HepG2 cells at 2 µM (Plasmodium berghei [1]): 0%
pIC50 [2]: 7.77

Structure (SMILES): Cc1cn(-c2ccnc(NC3CCN(C(=O)c4nccs4)CC3)n2)c(-c2ccccc2)n1
inhibition (Plasmodium falciparum [3]): 5%

Structure (SMILES): COc1cc(C)c2c(Oc3cccc(C(F)(F)F)c3)c(OC)cc(NC(C)CCCN)c2n1 (stereo not drawn) [TAFENOQUINE]
pIC50 (Plasmodium cynomolgi [4]): 6.85
pIC50 (Plasmodium cynomolgi [5]): 6.72
pIC50 (Plasmodium cynomolgi [6]): 5.44
pIC50 (Plasmodium cynomolgi [7]): 5.46
Activity [8]: 18.61 µM
Activity [9]: 13.82 µM

Structure (SMILES): O=C(c1nccs1)N1CC[C@@H](Nc2nccc(-n3cc(C4CC4)nc3-c3ccccc3)n2)C1
pEC50 (Plasmodium falciparum [10]): 5.12
pEC50 (Plasmodium berghei [11]): 4.70
half-life [12]: < 2 min
pIC50 (Cytochrome P450 2D6): < 5.00
pIC50 (Cytochrome P450 2C9): < 5.00
solubility kinetic at 1 h [13]: 92 µM (≈ 42.1 µg/mL)
pIC50 (Cytochrome P450 3A4): 6.54
pIC50 [14]: 7.00
half-life [15]: 4.8 min

Structure (SMILES): Cc1cn(-c2ccnc(N[C@@H]3CCN(C(=O)c4nccs4)C3)n2)c(-c2cccc(OC(F)(F)F)c2)n1
pIC50 [14]: 6.82

Structure (SMILES): O=C(c1nccs1)N1CC[C@@H](Nc2nccc(-n3cc(C4CC4)nc3-c3cccc(Cl)c3)n2)C1
pIC50 (Plasmodium cynomolgi [4]): 5.01
percent inhibition of parasite infection at 10 µM (Plasmodium berghei [16]): 93%
pIC50 (Plasmodium cynomolgi [5]): 6.03
pEC50 (Plasmodium falciparum [10]): 5.48
pEC50 (Plasmodium berghei [11]): 5.24
pIC50 (Plasmodium cynomolgi [6]): 5.34
half-life [12]: < 2 min
pIC50 (Plasmodium cynomolgi [7]): < 4.70
pIC50 (Cytochrome P450 2D6): < 5.00
pIC50 (Cytochrome P450 2C9): 5.55
solubility kinetic at 1 h [13]: 28 µM (≈ 13.8 µg/mL)
pIC50 (Cytochrome P450 3A4): 6.72
percent decrease in parasite infection in HepG2 cells at 2 µM (Plasmodium berghei [1]): 94%
Activity [8]: > 20 µM
Activity [9]: > 20 µM
pIC50 [14]: 7.22
half-life [15]: 3.7 min

Structure (SMILES): Cc1cn(-c2ccnc(N[C@@H]3CCN(C(=O)c4nccs4)C3)n2)c(-c2ccc(Cl)cc2)n1
pIC50 [14]: 5.94

Structure (SMILES): CO[C@@H]1[C@@H](OC)[C@H](C)C(O)(CC(=O)O)O[C@H]1[C@H](C)[C@H]1O[C@@]2(CC[C@@](C)([C@H]3CC[C@@](C)([C@@H]4O[C@@H]([C@H]5OC(C)(O)[C@H](C)C[C@@H]5C)C[C@@H]4O[C@@H]4C[C@H](OC)[C@@H](OC)[C@H](C)O4)O3)O2)C[C@H](O)[C@H]1C (stereo partly drawn)
pIC50 (Plasmodium cynomolgi [4]): 7.70
pIC50 (Plasmodium cynomolgi [5]): 8.00
pIC50 (Plasmodium cynomolgi [6]): 7.52
pIC50 (Plasmodium cynomolgi [7]): 7.52
Activity [8]: 11.91 µM
Activity [9]: 5.78 µM

Structure (SMILES): Cc1cn(-c2ccnc(NCC3(NC(=O)c4nccs4)CC3)n2)c(-c2ccccc2)n1
inhibition (Plasmodium falciparum [3]): 6%

Structure (SMILES): CN1CCC(c2cc(-c3ccc(F)cc3)c(-c3ccncc3)[nH]2)CC1
percent inhibition of parasite infection at 10 µM (Plasmodium berghei [16]): 94%
pEC50 (Plasmodium falciparum [10]): 6.82
pEC50 (Plasmodium berghei [11]): 6.52
percent decrease in parasite infection in HepG2 cells at 2 µM (Plasmodium berghei [1]): 91%
pIC50 [2]: 7.70
pIC50 [14]: 7.66

Structure (SMILES): Cc1cn(-c2ccnc(N[C@@H]3CCN(C(=O)c4nccs4)C3)n2)c(-c2ccccc2)n1
pIC50 (Plasmodium cynomolgi [4]): < 4.70
percent inhibition of parasite infection at 10 µM (Plasmodium berghei [16]): 89%
pIC50 (Plasmodium cynomolgi [5]): 5.10
pIC50 (Plasmodium cynomolgi [6]): 4.94
half-life [12]: < 2 min
inhibition [17]: 3%
pIC50 (Plasmodium cynomolgi [7]): < 4.70
solubility kinetic at 1 h [13]: 200 µM (≈ 86.3 µg/mL)
percent decrease in parasite infection in HepG2 cells at 2 µM (Plasmodium berghei [1]): 78%
inhibition (Homo sapiens): 3%
Activity [8]: > 20 µM
Activity [9]: > 20 µM
pIC50 [14]: 6.49
half-life [15]: < 2 min

Structure (SMILES): Cc1cn(-c2ccnc(N[C@@H]3CCN(C(=O)c4ccn(C)n4)C3)n2)c(-c2ccccc2)n1
pIC50 [14]: 6.00

Structure (SMILES): CCN(CC)Cc1onc(-c2cccc(Cl)c2)c1-c1ccnc(N[C@@H]2CCN(C(=O)c3ccon3)C2)n1
percent decrease in parasite infection in HepG2 cells at 2 µM (Plasmodium berghei [1]): 52%
pIC50 [2]: 7.89

Further lines, results first:

inhibition (Plasmodium falciparum [3]): 2%
Structure (SMILES): Cc1cn(-c2ccnc(NCC3CCN3C(=O)c3nccs3)n2)c(-c2ccccc2)n1 (stereo not drawn)

pIC50 [14]: 7.07
Structure (SMILES): COc1cccc(-c2nc(C)cn2-c2ccnc(N[C@@H]3CCN(C(=O)c4nccs4)C3)n2)c1

inhibition (Plasmodium falciparum [3]): 4%
Structure (SMILES): Cc1cn(-c2ccnc(NC3CCCN(C(=O)c4nccs4)C3)n2)c(-c2ccccc2)n1 (stereo not drawn)

inhibition (Plasmodium falciparum [3]): 47%
Structure (SMILES): Cc1cn(-c2ccnc(N[C@@H]3CCN(C(=O)c4nccs4)C3)n2)c(-c2ccccc2Cl)n1

inhibition (Plasmodium falciparum [3]): 4%
Structure (SMILES): Cc1cn(-c2ccnc(N[C@H]3CCN(C(=O)c4nccs4)C3)n2)c(-c2ccccc2)n1

inhibition (Plasmodium falciparum [3]): 3%
Structure (SMILES): Cc1cn(-c2ccnc(NCC3CCCN3C(=O)c3nccs3)n2)c(-c2ccccc2)n1 (stereo not drawn)
